The source of these data is PMC5693757 (Journal of molecular biology, 2017).

Broadly, the Kd is a measure of binding affinity in units of concentration.

Format in all cases: binding
Test [1] has as its target T1, ARL2 (Homo sapiens, UniProt P36404). The test can be described thus: HDX-MS.
In test [2] the target is T1, ARL2. Description: radioligand nitrocellulose filter trapping.
In test [3] the target is T1, ARL2. The test can be described thus: real-time mant fluorescence association/dissociation kinetics.

T1 sequence (P36404 2-184): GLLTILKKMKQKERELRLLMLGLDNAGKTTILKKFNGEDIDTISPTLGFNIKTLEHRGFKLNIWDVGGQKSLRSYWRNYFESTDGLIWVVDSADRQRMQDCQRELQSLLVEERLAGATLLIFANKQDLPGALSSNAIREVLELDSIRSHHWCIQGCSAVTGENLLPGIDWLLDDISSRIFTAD

Consider `Nc1nc2c(ncn2[C@@H]2O[C@H](COP(=O)(O)OP(=O)(O)O)[C@@H](O)[C@H]2O)c(=O)[nH]1` [GDP], for which the HDX-MS result in test [1] is “addition of GDP to ARL2 (apo→GDP) resulted in large protection to deuterium uptake at the conserved nucleotide-binding motifs G1 and G4”. For `Nc1nc2c(ncn2[C@@H]2O[C@H](COP(=O)(O)OP(=O)(O)OP(O)(O)=S)[C@@H](O)[C@H]2O)c(=O)[nH]1` [GTPγS], the “radioligand nitrocellulose filter trapping; HDX-MS” value in test [2] is “Human ARL2 monomer, exogenously expressed and purified from E. coli or HEK cells, bound GTPγS to similar stoichiometries”.

The compound mant-Gpp(NH)p gave an equilibrium dissociation constant (Kd) in test [3] of 590 nM. In other words, the sub-micromolar range.
